Legend:
[1] = test system: HT-29 colorectal adenocarcinoma cells; test: MTT assay; assay type: cell-based; conditions: Homo sapiens
Protocol: (§1) DLD-1, HaCaT, and Balb/c 3T3 cells were maintained in DMEM, while HT-29 cells were grown in McCoy’s 5A medium with 10% FBS and 1% penicillin/streptomycin. All cell lines were incubated at 37 °C in a humidified atmosphere with 5% CO2. After detaching the cells with trypsin, they were quantified using a Scepter 3.0 automated cell counter (Millipore, Burlington, MA, USA).
(§2) The metabolic activity of cells exposed to the tested derivatives, doxorubicin, and DMSO, was assessed using an MTT assay according to the manufacturer’s protocol (Sigma-Aldrich, St. Louis, MO, USA). Adherent cells were seeded into 96-well plates (5000–10,000 cells in 100 µL of growth medium per well) and allowed to adhere overnight before treatment. For lymphocytes, activation with phytohemagglutinin-L (1 µg/mL) was performed for 24 h, after which they were seeded in 96-well plates at a density of 100,000 cells/well in RPMI-1640 medium supplemented with 20% FBS. The test substances, including Les-6547, Les-6557, and doxorubicin, were added to 100 µL of culture medium to achieve final concentrations of 0 µM, 0.1 µM, 1 µM, 2.5 µM, 10 µM, and 100 µM for all compounds, and the cells were further incubated for 24, 48, or 72 h. DMSO-treated cells served as the control. Then, 20 µL of MTT solution (5 mg/mL) was added and incubated for 2–4 h to allow formazan crystal formation. The formazan crystals were then solubilized by adding DMSO. The absorbance of formazan was measured at 570 nm using a ThermoScientific Evolution 201 UV-VIS spectrophotometer (ThermoFisher Scientific, Waltham, MA, USA). The control condition with 0.5% DMSO was considered 100% viability. The IC50 values for the compounds were determined using GraphPad Prism 8 and 9 software (GraphPad Software, Boston, MA, USA).

[2] = test system: Balb/c 3T3 (mouse fibroblasts); test: MTT assay; assay type: cell-based; conditions: BALB/c3T3, Balb/c 3T3, MTT, 72 h, M ± SD, n = 3
Protocol: as §1, §2

[3] = test system: HaCaT (human keratinocytes); test: MTT assay; assay type: cell-based; conditions: 72 h, M ± SD, n = 3
Protocol: as §1, §2

[4] = test system: HT-29 colorectal adenocarcinoma cells; test: Cell cycle analysis (PI, flow cytometry); assay type: cell-based, human; conditions: HT-29, 24 h; Les-6547 5 μM, Les-6557 10 μM
Protocol: Cell cycle analysis of HT-29 cells treated with Les-6547 (5 µM) and Les-6557 (10 µM) for 24 h was conducted utilizing a FACSCanto II flow cytometer. Following the incubation period, the cells were detached using trypsin, collected, and fixed in cold ethanol (70%) before being stored at −20 °C for up to three days. Cells were then processed for flow cytometry analysis as previously described. Fixed cells were washed with cold PBS and centrifuged at 2000 rpm for 10 min, and the supernatant was discarded. The cell pellet was resuspended in PBS with 50 μg/mL DNase-free RNase A Solution and stained with 100 μg/mL PI for 30 min at 37 °C in the dark. After washing, the cells were resuspended in PBS. Cell cycle distribution was analyzed using a BD FACSCanto II flow cytometer (10,000 events) and FACSDiva 6.1.3 software (both BD Biosciences Systems, San Jose, CA, USA), followed by analysis with FCS Express 7 software (De Novo Software, Pasadena, CA, USA). The system was calibrated using a BD Cytometer Setup and Tracking Beads (BD Biosciences, San Diego, CA, USA).

[5] = test system: Human blood lymphocytes; test: MTT assay; assay type: cell-based; conditions: for IC50: Lymphocyte, human blood lymphocytes, 72 h, M ± SD, n = 3; for decrease of viability compared to control cells: lymphocytes from a healthy donor, 100 µM
Protocol: Lymphocytes from human peripheral blood were isolated with sodium heparin (10 U/mL) as an anticoagulant. Isolation was performed through a density gradient method with the Gradisol G, following a modified procedure. Peripheral blood was mixed with Gradisol G in equal proportions (1:1) and centrifuged at 400× g for 30 min at room temperature. The cells were collected, washed in phosphate-buffered saline (PBS), and treated with a hypotonic solution to remove residual erythrocytes. Lymphocytes were activated by phytohemagglutinin-L (1 µg/mL) and cultured in RPMI-1640 medium supplemented with 20% fetal bovine serum under controlled conditions of 95% air and 5% CO2 [27].
as §2

[6] = test system: DLD-1 colorectal adenocarcinoma cells; test: MTT assay; assay type: cell-based, human; conditions: for IC50: Homo sapiens
Protocol: as §1, §2

[7] = test system: HT-29 colorectal adenocarcinoma cells; test: Colony forming (clonogenic) assay; assay type: cell-based, human; conditions: for inhibition of colony formation: HT-29, 2.5 µM; for inhibition at 1 µM / IC50: Homo sapiens; for inhibition at 1 µM: HT-29, 1 µM, read-out: inhibition of colony formation; for IC50: HT-29, 72 h treatment, 14 days of incubation, n = 3
Protocol: (§3) For colony forming assay, HT-29 and DLD-1 cells were seeded in 12-well plates at a density of 500 cells in 2 mL of growth medium per well. After overnight incubation, the cells were exposed to the compounds Les-6547, Les-6557, and doxorubicin at concentrations ranging from 0.1 to 100 µM for 72 h. Following treatment, the medium was replaced with fresh medium without the compounds. After 14 days of culture, cells were rinsed with PBS and fixed with cold methanol for 10 min. Subsequently, the cells were stained with a 0.1% crystal violet solution for 10 min. After washing, the plates were allowed to dry at room temperature. Numbers of colonies were quantified using ImageJ software (version 1.5.4; National Institutes of Health, Bethesda, MD, USA). The effect of the compounds on the colony-forming capacity was calculated as a percentage of colonies relative to the untreated control group.

[8] = test system: DLD-1 colorectal adenocarcinoma cells; test: Colony forming (clonogenic) assay; assay type: cell-based, human; conditions: for inhibition of colony formation: DLD-1, 2.5 µM; for inhibition at 1 µM / IC50: Homo sapiens; for inhibition at 1 µM: DLD-1, 1 µM, read-out: inhibition of colony formation; for IC50: DLD-1, 72 h treatment, 14 days of incubation, M ± SD, n = 3
Protocol: as §3

[9] = test system: HT-29 colorectal adenocarcinoma cells; test: Mitochondrial membrane potential assay (JC-1, flow cytometry); assay type: cell-based, human; conditions: HT-29, JC-1, 24 h; Les-6547 5 μM, Les-6557 10 μM
Protocol: The disruption of mitochondrial membrane potential (MMP) was assessed using the JC-1 MitoScreen kit and a BD FACSCanto II flow cytometer, following the instructions provided and previously described protocols.
HT-29 cells were exposed to Les-6547 (5 µM) and Les-6557 (10 µM) for 24 h. After the treatment, the cells were washed and resuspended in 0.5 mL of buffer containing 10 μg/mL JC-1, followed by incubation for 15 min at room temperature, shielded from light.
Then, the cells were washed twice with buffer, resuspended in 300 μL of PBS, and analyzed for mitochondrial membrane potential disruption.

[10] = HT-29, MTT, 24, 48 and 72 h, read-out: IC50 (range over incubation times)
[11] = HT-29, MTT, 24 h, M ± SD, n = 3, read-out: IC50
[12] = HT-29, MTT, 48 h, M ± SD, n = 3, read-out: IC50
[13] = HT-29, MTT, 72 h, M ± SD, n = 3, read-out: IC50
[14] = DLD-1, MTT, 24, 48 and 72 h, read-out: IC50 (range over incubation times)
[15] = DLD-1, MTT, 24 h, M ± SD, n = 3, read-out: IC50
[16] = DLD-1, MTT, 48 h, M ± SD, n = 3, read-out: IC50
[17] = DLD-1, MTT, 72 h, M ± SD, n = 3, read-out: IC50

IC50 [1, 10]	IC50 [1, 11]	IC50 [1, 12]	IC50 [1, 13]	IC50 [6, 14]	IC50 [6, 15]	IC50 [6, 16]	IC50 [6, 17]	IC50 [7]	SMILES	IC50 [2]	IC50 [3]	cells in G1 phase [4]	cells in G2/M phase [4]	cells in S phase [4]	IC50 [5]	decrease of viability compared to control cells [5]	inhibition of colony formation [7]	inhibition at 1 µM [7]	inhibition of colony formation [8]	inhibition at 1 µM [8]	also measured
4.29 to 5.72 µM	5.72 ± 0.41 µM	4.29 ± 0.5 µM	4.44 ± 0.35 µM	5.14 to 6.62 µM	5.14 ± 0.81 µM	5.17 ± 0.58 µM	6.62 ± 0.07 µM	~0.5 µM	O=C1C2=C(C(=O)c3c(O)cccc31)C(c1cc(Cl)ccc1O)c1sc(=O)[nH]c1S2 (centres unmarked) [Les-6547]	31.7 ± 0.41 µM	89.64 ± 0.84 µM	25.4%	39.9%	34.7%	> 100 µM	25%	completely inhibited colony formation	100%	completely inhibited colony formation	99%	IC50 [8]: 0.4 ± 0.06 µM; Cells with decreased ΔΨm [9]: 30.8%; Cells with normal ΔΨm [9]: 70.4%
6.54 to 10.4 µM	10.4 ± 0.23 µM	6.54 ± 0.07 µM	9.78 ± 0.03 µM	1.94 to 16.9 µM	16.9 ± 3.32 µM	1.94 ± 0.05 µM	5.19 ± 1.14 µM	~0.5 µM	O=C1C2=C(C(=O)c3c(O)cccc31)C(c1ccc(Cl)cc1)c1sc(=O)[nH]c1S2 (centres unmarked) [Les-6557]	40.26 ± 0.35 µM	68.37 ± 0.57 µM	19.2%	28.8%	51.3%	> 100 µM	25%	completely inhibited colony formation	100%	completely inhibited colony formation	99%	inhibition of viability, times more effective than Les-6547 ([6]; DLD-1, MTT, 48 h, versus Les-6547): 2.5 times; IC50 [8]: 0.33 ± 0.05 µM; Cells with decreased ΔΨm [9]: 32.9%; Cells with normal ΔΨm [9]: 68.5%
